Data set [1] is described as follows: Detection of released H2S by embrowning Pb-acetate paper after thiol addition. Conditions: excess amounts of L-cysteine or cysteamine. The protocol: 850 mg polymer was obtained as a white, fibrous product with an estimated molecular weight of 270 kDa (based on the starting material) and a degree of modification with H2S releasing perthiol structures of […] polymer. This corresponds to a conversion rate of 98% of the thiol moieties of the polymer used as starting material. […] Emerging H2S was detected by embrowning Pb-acetate paper.
This finding was later confirmed by detecting H2S release after addition of excess amounts of L-cysteine or cysteamine to 4-amino-N-(benzoylthio)benzamide via embrowning Pb-acetate paper.

A short description of data set [2]: Olfactory test for H2S liberation. Particulars: dissolved in acetone/phosphate buffer, excess L-cysteine.
Data set [3] concerns immortalized human microvascular endothelial cells (HMEC-1). As to the kind of experiment: Cell compatibility / proliferation (WST-1). Conditions: HMEC-1 compared with the other cell types. Format: cell-based. The text has this: In order to study cell compatibility, especially the effect of proliferation, the H2S releasing hyaluronic acid derivative according to FIG. 1A (s. above,) was investigated in comparison with unmodified HA (sodium salt of hyaluronic acid, “NA HA”) and an […] thiolated hyaluronic acid (“Thiomer CAPPY”). As further control, the well established commercially available H2S donor N-(benzoylthio)benzamide (Donor 5a is NSHD1, a small molecule with a thiol activation mechanism) was included in the experiments.
Three types of skin cells were used as models: primary human dermal fibroblasts (dFb), the immortalized line of human microvascular endothelial cells (HMEC-1) and the keratinocyte cell line HaCat. The cells were cultured in their appropriate medium. Synthetic medium Fibrolife with supplements and gentamycin was used for dFb, EBM+supplements was used for HMEC-1 and DMEM with 10% FCS and 1% CellShield was used for HaCat cells. Furthermore, 3 mM cysteine was added to all conditions investigated. […] Cells were seeded and grown at least overnight before medium was changed and the HA components were added according to the agreed protocol. […] Cell proliferation was measured indicated by using a WST-1-based colorimetric detection reagent according to manufacturers' protocol with fresh medium without addition of any HA-derivative. […]
(Tetrazolium dyes change colour on reduction, which living cells bring about.)

Each structure is given as a SMILES string.

On to `Nc1ccc(C(=O)NSC(=O)c2ccccc2)cc1` [4-amino-N-(benzoylthio)benzamide], for which the “H2S release detected by Pb-acetate paper” value in data set [1] is listed as “H2S release”. Moreover, the “H2S liberation, olfactory test” value in data set [2] is “indicated H2S liberation”.
For the compound `O=C(NSC(=O)c1ccccc1)c1ccccc1` [Donor 5a, N-(benzoylthio)benzamide], the “sensitivity of endothelial cells to H2S” value in data set [3] was “most sensitive”.

(Values after patent US11331338B2, “Hydrogen sulfide releasing polymer compounds” (CROMA-PHARMA GESELLSCHAFT M.B.H., priority 2016, dated 2022).)
